Source: US9845310B2 (priority 2015, dated 2017)

What was measured:
APJ = APJ (Homo sapiens (Human), UniProt P35414); assay: [35S]GTPγS binding assay on membranes from CHO cells stably expressing human APJ receptor; assay type: biochemical; settings: read-out: Activity hAPJ SPA EC50 IP
Description: A GTPγS binding assay was performed on membranes prepared from CHO cells stably expressing human APJ receptor. The optimum experimental conditions for the concentrations of GDP, MgCl2, and NaCl in the assay buffer were initially determined. The assay was performed in assay buffer [20 mM HEPES, pH 7.5, 5 mM MgCl2, and 0.1% (w/v) BSA with 200 mM NaCl, 3 M GDP] and membranes expressing human APJ receptor/well along with WGA PS beads. The reaction was initiated by addition of 0.2 nM [^35S]GTPγS (Perkin Elmer Life and Analytical Sciences, Waltham USA) in the absence or presence of various ligands and incubated at RT for 90 min. Nonspecific binding was determined in the presence of 100 M GTPγS and was always less than 0.2% of total binding.

[1] = test system: naive Sprague Dawley rat hearts; settings: ex vivo isolated perfused rat heart, percent change over vehicle; for Isolated Heart Assay dP/dtmax(%): contractility; for Isolated Heart Assay dP/dtmin(%): relaxation (lusitropic)

Chain of APJ (P35414 whole entry, the tested form may be a part): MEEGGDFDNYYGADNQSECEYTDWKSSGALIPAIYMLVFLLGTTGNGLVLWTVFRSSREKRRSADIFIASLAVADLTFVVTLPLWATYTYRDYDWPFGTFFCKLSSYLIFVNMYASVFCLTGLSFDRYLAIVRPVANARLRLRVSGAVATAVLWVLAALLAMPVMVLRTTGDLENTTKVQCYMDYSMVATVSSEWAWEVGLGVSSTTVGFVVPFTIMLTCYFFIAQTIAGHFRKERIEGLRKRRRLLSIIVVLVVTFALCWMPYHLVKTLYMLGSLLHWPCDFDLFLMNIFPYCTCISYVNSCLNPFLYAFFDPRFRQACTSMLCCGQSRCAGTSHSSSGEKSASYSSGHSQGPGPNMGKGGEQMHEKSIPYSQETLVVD

## COc1cccc(OC)c1-n1c(NS(=O)(=O)[C@@H](C)Cc2ncc(F)cn2)nnc1-c1cncc(C)c1 (mixture of isomers) [Example 207.0, (S)-N-(4-(2,6-dimethoxyphenyl)-5-(5-methylpyridin-3-yl)-4H-1,2,4-triazol-3-yl)-1-(5-fluoropyrimidin-2-yl)propane-2-sulfonamide and (R)-N-(4-(2,6-dimethoxyphenyl)-5-(5-methylpyridin-3-yl)-4H-1,2,4-triazol-3-yl)-1-(5-fluoropyrimidin-2-yl)propane-2-sulfonamide]
APJ
  EC50: 3.3 nM

## COc1cccc(OC)c1-n1c(NS(=O)(=O)[C@@H](C)Cc2ncc(F)cn2)nnc1-c1cnccc1C (mixture of isomers) [Example 216.0, (2S)-N-(4-(2,6-dimethoxyphenyl)-5-(4-methyl-3-pyridinyl)-4H-1,2,4-triazol-3-yl)-1-(5-fluoro-2-pyrimidinyl)-2-propanesulfonamide and (2R)-N-(4-(2,6-dimethoxyphenyl)-5-(4-methyl-3-pyridinyl)-4H-1,2,4-triazol-3-yl)-1-(5-fluoro-2-pyrimidinyl)-2-propanesulfonamide]
APJ
  EC50: 570 nM

## COc1ncnc(OC)c1-n1c(NS(=O)(=O)[C@@H](C)[C@H](OC)c2ccc(Cl)cn2)nnc1-c1cccnc1 (single isomer, unassigned) [Example 711.0, (1R,2S)-1-(5-chloro-2-pyridinyl)-N-(4-(4,6-dimethoxy-5-pyrimidinyl)-5-(3-pyridinyl)-4H-1,2,4-triazol-3-yl)-1-methoxy-2-propanesulfonamide or (1S,2R)-1-(5-chloro-2-pyridinyl)-N-(4-(4,6-dimethoxy-5-pyrimidinyl)-5-(3-pyridinyl)-4H-1,2,4-triazol-3-yl)-1-methoxy-2-propanesulfonamide]
[1]
  Isolated Heart Assay dP/dtmax(%): 9.4%
  Isolated Heart Assay dP/dtmin(%): 1.1%

## Cc1cnc([C@@H](C)[C@H](C)S(=O)(=O)Nc2nnc(-c3cncc(C)c3)n2-c2c(F)cccc2F)nc1 (single isomer, unassigned) [Example 826.0, (2S,3R)-N-(4-(2,6-difluorophenyl)-5-(5-methylpyridin-3-yl)-4H-1,2,4-triazol-3-yl)-3-(5-methylpyrimidin-2-yl)butane-2-sulfonamide or (2R,3S)-N-(4-(2,6-difluorophenyl)-5-(5-methylpyridin-3-yl)-4H-1,2,4-triazol-3-yl)-3-(5-methylpyrimidin-2-yl)butane-2-sulfonamide]
[1]
  Isolated Heart Assay dP/dtmax(%): 6.02%
  Isolated Heart Assay dP/dtmin(%): 5.16%

## COc1cccc(OC)c1-n1c(NS(=O)(=O)[C@@H](C)[C@@H](OC(C)C)c2ncc(C)cn2)nnc1-c1cccnc1 (stereo in doubt) [Example 627.0, (1R,2R)-N-(4-(2,6-dimethoxyphenyl)-5-(3-pyridinyl)-4H-1,2,4-triazol-3-yl)-1-(1-methylethoxy)-1-(5-methyl-2-pyrimidinyl)-2-propanesulfonamide, (1S,2S)-N-(4-(2,6-dimethoxyphenyl)-5-(3-pyridinyl)-4H-1,2,4-triazol-3-yl)-1-(1-methylethoxy)-1-(5-methyl-2-pyrimidinyl)-2-propanesulfonamide]
[1]
  Isolated Heart Assay dP/dtmax(%): No effect
  Isolated Heart Assay dP/dtmin(%): No effect

## CCO[C@H](c1ncc(F)cn1)[C@H](C)S(=O)(=O)Nc1nnc(-c2cccnc2)n1-c1c(OC)cccc1OC [Example 51.0, (1R,2S)-N-(4-(2,6-dimethoxyphenyl)-5-(3-pyidinyl)-4H-1,2,4-triazol-3-yl)-1-ethoxy-1-(5-fluoro-2-pyrimidinyl)-2-propanesulfonamide]
[1]
  Isolated Heart Assay dP/dtmax(%): 2.0%
  Isolated Heart Assay dP/dtmin(%): 2.0%

## CCO[C@H](c1ncc(F)cn1)[C@H](C)S(=O)(=O)Nc1nnc(-c2cncc(C)c2)n1-c1c(OC)cccc1OC [Example 79.0, (1R,2S)-N-(4-(2,6-dimethoxyphenyl)-5-(5-methyl-3-pyridinyl)-4H-1,2,4-triazol-3-yl)-1-ethoxy-1-(5-fluoro-2-pyrimidinyl)-2-propanesulfonamide]
[1]
  Isolated Heart Assay dP/dtmax(%): 10.0%
  Isolated Heart Assay dP/dtmin(%): 5.0%

## COc1cccc(OC)c1-n1c(NS(=O)(=O)[C@@H](C)[C@H](OC)c2ncc(F)cn2)nnc1-c1cncc(C)c1 [Example 80.0, (1R,2S)-N-(4-(2,6-dimethoxyphenyl)-5-(5-methyl-3-pyridinyl)-4H-1,2,4-triazol-3-yl)-1-(5-fluoro-2-pyrimidinyl)-1-methoxy-2-propanesulfonamide]
[1]
  Isolated Heart Assay dP/dtmax(%): 5.0%
  Isolated Heart Assay dP/dtmin(%): −2.7%

## COc1cccc(OC)c1-n1c(NS(=O)(=O)[C@@H](C)[C@H](OC)c2ncc(F)cn2)nnc1-c1cccnc1 [Example 81.0, (1R,2S)-N-(4-(2,6-dimethoxyphenyl)-5-(3-pyridinyl)-4H-1,2,4-triazol-3-yl)-1-(5-fluoro-2-pyrimidinyl)-1-methoxy-2-propanesulfonamide]
[1]
  Isolated Heart Assay dP/dtmax(%): 14.0%
  Isolated Heart Assay dP/dtmin(%): 15.0%

## COc1cccc(OC)c1-n1c(NS(=O)(=O)[C@@H](C)[C@H](O)c2ncc(F)cn2)nnc1-c1cccnc1 [Example 82.0, (1R,2S)-N-(4-(2,6-dimethoxyphenyl)-5-(3-pyridinyl)-4H-1,2,4-triazol-3-yl)-1-(5-fluoro-2-pyrimidinyl)-1-hydroxy-2-propanesulfonamide]
[1]
  Isolated Heart Assay dP/dtmax(%): 13.5%
  Isolated Heart Assay dP/dtmin(%): 16.2%

## CCO[C@H](c1ncc(C)cn1)[C@H](C)S(=O)(=O)Nc1nnc(-c2cncc(C)c2)n1-c1c(OC)cccc1OC [Example 252.0, (1R,2S)-N-(4-(2,6-dimethoxyphenyl)-5-(5-methylpyridin-3-yl)-4H-1,2,4-triazol-3-yl)-1-ethoxy-1-(5-methylpyrimidin-2-yl)propane-2-sulfonamide]
[1]
  Isolated Heart Assay dP/dtmax(%): 15.7%
  Isolated Heart Assay dP/dtmin(%): 16.3%

## CCO[C@H](c1ncc(Cl)cn1)[C@H](C)S(=O)(=O)Nc1nnc(-c2cccnc2)n1-c1c(OC)cccc1OC [Example 430.0, (1R,2S)-1-(5-chloropyrimidin-2-yl)-N-(4-(2,6-dimethoxyphenyl)-5-(pyridin-3-yl)-4H-1,2,4-triazol-3-yl)-1-ethoxypropane-2-sulfonamide]
[1]
  Isolated Heart Assay dP/dtmax(%): 10.0%
  Isolated Heart Assay dP/dtmin(%): 9.7%

## COc1cccc(OC)c1-n1c(NS(=O)(=O)[C@@H](C)[C@H](OC)c2ncc(Cl)cn2)nnc1-c1cccnc1 [Example 591.0, (1R,2S)-1-(5-chloro-2-pyrimidinyl)-N-(4-(2,6-dimethoxyphenyl)-5-(3-pyridinyl)-4H-1,2,4-triazol-3-yl)-1-methoxy-2-propanesulfonamide]
[1]
  Isolated Heart Assay dP/dtmax(%): 8.0%
  Isolated Heart Assay dP/dtmin(%): 0.0%

## CCO[C@H](c1ncc(Cl)cn1)[C@H](C)S(=O)(=O)Nc1nnc(-c2cncc(C)c2)n1-c1c(OC)cccc1OC [Example 610.0, (1R,2S)-1-(5-chloro-2-pyrimidinyl)-N-(4-(2,6-dimethoxyphenyl)-5-(5-methyl-3-pyridinyl)-4H-1,2,4-triazol-3-yl)-1-ethoxy-2-propanesulfonamide]
[1]
  Isolated Heart Assay dP/dtmax(%): 6.0%
  Isolated Heart Assay dP/dtmin(%): No effect

## COc1cccc(OC)c1-n1c(NS(=O)(=O)[C@H](C)[C@@H](O)c2cnc(C)cn2)nnc1-c1cccnc1 [Example 614.0, (1S,2R)-N-(4-(2,6-dimethoxyphenyl)-5-(3-pyridinyl)-4H-1,2,4-triazol-3-yl)-1-hydroxy-1-(5-methyl-2-pyrazinyl)-2-propanesulfonamide]
[1]
  Isolated Heart Assay dP/dtmax(%): 6.6%
  Isolated Heart Assay dP/dtmin(%): 6.2%

## COc1cccc(OC)c1-n1c(NS(=O)(=O)CCc2ccc(F)cc2C#N)nnc1-c1cncc(C)c1 [Example 621.0, 2-(2-cyano-4-fluorophenyl)-N-(4-(2,6-dimethoxyphenyl)-5-(5-methyl-3-pyridinyl)-4H-1,2,4-triazol-3-yl)ethanesulfonamide]
[1]
  Isolated Heart Assay dP/dtmax(%): 7.4%
  Isolated Heart Assay dP/dtmin(%): 6.0%

## COc1ncnc(OC)c1-n1c(NS(=O)(=O)[C@@H](C)[C@H](C)c2ncc(Cl)cn2)nnc1-c1cccnc1 [Example 709.0, (2S,3R)-3-(5-chloro-2-pyrimidinyl)-N-(4-(4,6-dimethoxy-5-pyrimidinyl)-5-(3-pyridinyl)-4H-1,2,4-triazol-3-yl)-2-butanesulfonamide]
[1]
  Isolated Heart Assay dP/dtmax(%): 6.0%
  Isolated Heart Assay dP/dtmin(%): 3.0%

## COc1cccc(-c2nnc(NS(=O)(=O)[C@@H](C)[C@H](C)c3ncc(Cl)cn3)n2-c2c(OC)ncnc2OC)n1 [Example 710.0, (2S,3R)-3-(5-chloro-2-pyrimidinyl)-N-(4-(4,6-dimethoxy-5-pyrimidinyl)-5-(6-methoxy-2-pyridinyl)-4H-1,2,4-triazol-3-yl)-2-butanesulfonamide]
[1]
  Isolated Heart Assay dP/dtmax(%): 12.7%
  Isolated Heart Assay dP/dtmin(%): 10.3%

## COc1cccc(-c2nnc(NS(=O)(=O)[C@@H](C)[C@H](C)c3ncc(C)cn3)n2-c2c(F)cccc2F)n1 [Example 784.0, (2S,3R)-N-(4-(2,6-difluorophenyl)-5-(6-methoxy-2-pyridinyl)-4H-1,2,4-triazol-3-yl)-3-(5-methyl-2-pyrimidinyl)-2-butanesulfonamide]
[1]
  Isolated Heart Assay dP/dtmax(%): 4.3%
  Isolated Heart Assay dP/dtmin(%): 1.93%

## COc1cccc(-c2nnc(NS(=O)(=O)[C@@H](C)[C@H](C)c3cnc(C)cn3)n2-c2c(OC)ncnc2OC)n1 [Example 799.0, (2S,3R)-N-(4-(4,6-dimethoxy-5-pyrimidinyl)-5-(6-methoxy-2-pyridinyl)-4H-1,2,4-triazol-3-yl)-3-(5-methyl-2-pyrazinyl)-2-butanesulfonamide]
[1]
  Isolated Heart Assay dP/dtmax(%): 7.8%
  Isolated Heart Assay dP/dtmin(%): 14.1%

## COc1cnc([C@@H](C)[C@H](C)S(=O)(=O)Nc2nnc(-c3cccnc3)n2-c2c(OC)ncnc2OC)cn1 [Example 803.0, (2S,3R)-N-(4-(4,6-dimethoxy-5-pyrimidinyl)-5-(3-pyridinyl)-4H-1,2,4-triazol-3-yl)-3-(5-methoxy-2-pyrazinyl)-2-butanesulfonamide]
[1]
  Isolated Heart Assay dP/dtmax(%): 11.4%
  Isolated Heart Assay dP/dtmin(%): 10.0%
